Source: patent US12318388B2, “Pyrimidine derivatives for prevention and treatment of gram-negative bacterial infection, contamination and fouling” (UNIVERSITÉ DE LIÈGE, priority 2019, dated 2025)
Converted amounts (≈) assume the structure as drawn.

Experiments:
[1] = test system: Escherichia coli (ATCC 8739); experiment: Minimal Inhibitory Concentration (MIC) on Escherichia coli with or without PMBN, OD600 after O/N growth; format: cell-based; conditions: for Minimal inhibitory concentration With PMBN / MIC: E. coli (ATCC 8739); for Minimal inhibitory concentration With PMBN: together with PMBN at 40 μg/ml; for MIC: molecule alone
Description: The Minimal Inhibitory Concentration (MIC) of molecules 2329, 2412, 2452 and 2461 together with polymyxin B nonapeptide (PMBN) was determined on Escherichia coli (ATCC 8739) according to EUCAST (European Committee on Antimicrobial Susceptibility Testing) recommendations.
(§1) Briefly, a single colony grown on a Luria-Bertani Agar (LB) plate was resuspended and cultured in the LB medium overnight (O/N) in aerobic conditions (37° C. with 220 rpm shaking), next day a 1:50 inoculum in Mueller-Hinton broth (MHB) was incubated in aerobic conditions for 1h30 (OD=0.08-0.1) and an inoculum of 1:300 dilution, corresponding to 3×10^6 CFU/ml, was incubated in presence or absence of different concentrations of the molecules in 1% DMSO (vehicle) with or without Polymyxin B nonapeptide (PMBN) at 40 μg/ml. After O/N growth the OD of each culture was measured at 600 nm in a spectrophotometer (OD600). The MIC represents the concentration at which there is no visible growth of bacteria, i.e. ΔOD at 600 nm equal to zero wherein ΔOD is the difference between the resulting optical density (OD) with the molecule together with PMBN, and the optical density (OD) of the blank (blank is the medium) alone.
(§2) A single colony grown on an Lurian-Bertani (LB) agar plate is resuspended and cultured in LB medium overnight (O/N) in aerobic conditions (37° C. with 220 rpm shaking), next day a 1:50 inoculum in Mueller-Hinton broth (MHB) is incubated in aerobic conditions for 1h30 (OD=0.08-0.1) and an inoculum of 1:300 dilution, corresponding to 3×10^6 CFU/ml, is incubated in presence or absence of different concentrations of the tested molecules in 1% DMSO (vehicle) with or without PMBN at 40 μg/ml. After O/N growth the OD of each culture was measured at 600 nm (OD600) in a spectrophotometer (Victor 3-Perkin Elmer). The MIC represents the concentration at which there is no visible growth of bacteria, i.e. ΔOD at 600 nm equal to zero wherein ΔOD is the difference between the resulting optical density (OD) with the molecule together with PMBN, and the optical density (OD) of the blank (blank is the medium) alone.
as §1, with “cultured in LB medium” for “cultured in the LB medium”, “of the above-mentioned molecules in” for “of the molecules in”
as §2, with “a Luria-Bertani” for “an Lurian-Bertani”, “above-mentioned pyrazolopyrimidine molecule” for “tested molecules”, “alone. […]” for “alone.”

[2] = test system: Pseudomonas aeruginosa (ATCC27853); experiment: Minimal Inhibitory Concentration (MIC) on Pseudomonas aeruginosa with or without PMBN; format: cell-based; conditions: Pseudomonas aeruginosa (ATCC 27853); for Minimal inhibitory concentration without PMBN: molecule alone; for Minimal inhibitory concentration With PMBN: together with PMBN at 0.5 μg/ml
Description: A single colony grown on an tryptic soy agar plate is resuspended and cultured in tryptic soy broth medium overnight (O/N) in aerobic conditions (37° C. with 220 rpm shaking), next day a 1:100 inoculum in Mueller-Hinton broth (MHB) is incubated in aerobic conditions for 3h (OD=0.5-0.6) and an inoculum of 1:1000 dilution, corresponding to 1-3×10^5 CFU/ml, is incubated in presence or absence of different concentrations of the tested molecules in 1% DMSO (vehicle) with or without PMBN at 0.5 μg/ml. After 28-30h growth the OD of each culture was measured at 600 nm (OD600) in a spectrophotometer (Victor 3-Perkin Elmer). The MIC represents the concentration at which there is no visible growth of bacteria, i.e. ΔOD at 600 nm equal to zero (blank is the medium alone) wherein ΔOD is the difference between the resulting optical density (OD) with the molecule together with PMBN, and the optical density (OD) of the blank (blank is the medium) alone.

[3] = 100 μM together with 40 μg/ml PMBN
[4] = with 10 to 50 µg/ml PMBN, particularly 40 μg/ml

SMILES	MIC [1] [µM]	MIC ([1]; Escherichia coli, ATCC8739) [µM]	Antibacterial activity against E. coli (ATCC8739) [1]	OD600 nm after O/N growth of Escherichia coli (FIG. 4) [1, 3]	Minimal inhibitory concentration With PMBN [1] [µM]	Activity against Escherichia coli (ATCC 8739), conclusion [1, 4]	OD600 nm after O/N growth of Escherichia coli (FIG. 4) ([1]; 50 μM with 40 μg/ml PMBN)	Activity against Escherichia coli (ATCC 8739), conclusion ([1]; with 40 μg/ml PMBN)	Minimal inhibitory concentration without PMBN [2] [µM]	Minimal inhibitory concentration With PMBN [2] [µM]	OD600 nm after O/N growth of Escherichia coli (FIG. 4) ([1]; 20 μM with 40 μg/ml PMBN)
CCCCOc1nc(NC2CC2)c2ncn(Cc3c(F)ccc(C)c3F)c2n1 [molecule 38z″, 2-Butoxy-N-cyclopropyl-9-(2,6-difluoro-3-methylbenzyl)-9H-purin-6-amine, reference compound]	–	–	no antibacterial activity	did not differ from vehicle control	> 100	no antibacterial activity	–	–	–	–	–
C=CCn1cnc2c(N[C@@H]3C[C@H]3c3ccc(F)c(F)c3)nc(SCCC)nc21 [molecule 2412, 9-allyl-N-((1R,2S)-2-(3,4-difluorophenyl)cyclopropyl)-2-(propylthio)-9H-purin-6-amine]	>100	> 100	–	–	50 (≈ 20.1 µg/mL)	–	–	–	>100	50 (≈ 20.1 µg/mL)	–
C#CCn1cnc2c(N[C@@H]3C[C@H]3c3ccc(F)c(F)c3)nc(SCCC)nc21 [molecule 2452, N-((1R,2S)-2-(3,4-difluorophenyl)cyclopropyl)-9-(prop-2-yn-1-yl)-2-(propylthio)-9H-purin-6-amine]	>100	> 100	–	–	10 (≈ 3.99 µg/mL)	–	–	–	>100	50 (≈ 20 µg/mL)	–
CCCCSc1nc(NCc2c(F)ccc(C)c2F)c2ncn(Cc3c(F)ccc(C)c3F)c2n1 [molecule 41z″, 2-(Butylthio)-N,9-bis(2,6-difluoro-3-methylbenzyl)-9H-purin-6-amine, reference compound]	–	–	no antibacterial activity	did not differ from vehicle control	> 100	no antibacterial activity	–	–	–	–	–
CCCSc1nc(N[C@@H]2C[C@H]2c2ccc(F)c(F)c2)c2ncn([C@@H]3C[C@H](O)[C@@H](O)[C@H]3O)c2n1 [molecule 2461, (1S,2R,3S,4R)-4-(6-(((1R,2S)-2-(3,4-difluorophenyl)cyclopropyl)amino)-2-(propylthio)-9H-purin-9-yl)cyclopentane-1,2,3-triol]	>100	> 100	–	–	10 (≈ 4.78 µg/mL)	–	–	bactericidal activity	>100	50 (≈ 23.9 µg/mL)	killed all bacteria
CCCCCOc1nc(NCc2ccccc2)c2ncn(Cc3c(F)ccc(C)c3F)c2n1 [molecule 40z″, N-benzyl-9-(2,6-difluoro-3-methylbenzyl)-2(pentyloxy)-9H-purin-6-amine, reference compound]	–	–	no antibacterial activity	did not differ from vehicle control	> 100	no antibacterial activity	–	–	–	–	–
CCCCOc1nc(NCc2ccccc2)c2ncn(Cc3c(F)ccc(C)c3F)c2n1 [molecule 39z″, N-Benzyl-2-butoxy-9-(2,6-difluoro-3-methylbenzyl)-9H-purin-6-amine, reference compound]	–	–	no antibacterial activity	did not differ from vehicle control	> 100	no antibacterial activity	–	–	–	–	–

Further lines, with some results ahead:

MIC [1] [µM]	MIC ([1]; Escherichia coli, ATCC8739) [µM]	SMILES	Antibacterial activity against E. coli (ATCC8739) [1]	OD600 nm after O/N growth of Escherichia coli (FIG. 4) [1, 3]	Minimal inhibitory concentration With PMBN [1] [µM]	Activity against Escherichia coli (ATCC 8739), conclusion [1, 4]	OD600 nm after O/N growth of Escherichia coli (FIG. 4) ([1]; 50 μM with 40 μg/ml PMBN)	Activity against Escherichia coli (ATCC 8739), conclusion ([1]; with 40 μg/ml PMBN)	Minimal inhibitory concentration without PMBN [2] [µM]	Minimal inhibitory concentration With PMBN [2] [µM]	OD600 nm after O/N growth of Escherichia coli (FIG. 4) ([1]; 20 μM with 40 μg/ml PMBN)
>100	> 100	CSc1nc(N[C@@H]2C[C@H]2c2ccc(F)c(F)c2)c2cnn(C)c2n1 [molecule 2539, N-((1R,2S)-2-(3,4-difluorophenyl)cyclopropyl)-1-methyl-6-(methylthio)-1H-pyrazolo[3,4-d]pyrimidin-4-amine]	–	–	25 (≈ 8.68 µg/mL)	–	killed all bacteria	bactericidal activity	–	–	–
>100	> 100	CCSc1nc(N[C@@H]2C[C@H]2c2ccc(F)c(F)c2)c2ncn(C)c2n1 [molecule 2525, N-((1R,2S)-2-(3,4-difluorophenyl)cyclopropyl)-2-(ethylthio)-9-methyl-9H-purin-6-amine]	–	–	50 (≈ 18.1 µg/mL)	–	killed all bacteria	bactericidal activity	–	–	–
>100	> 100	CCCCSc1nc(N[C@@H]2C[C@H]2c2ccc(F)c(F)c2)c2ncn(C)c2n1 [molecule 2833, 2-(butylthio)-N-((1R,2S)-2-(3,4-difluorophenyl)cyclopropyl)-9-methyl-9H-purin-6-amine]	–	–	90 (≈ 35.1 µg/mL)	–	–	–	–	–	–
>100	> 100	CCn1cnc2c(N[C@@H]3C[C@H]3c3ccc(F)c(F)c3)nc(SC)nc21 [molecule 2511, N-((1R,2S)-2-(3,4-difluorophenyl)cyclopropyl)-9-ethyl-2-(methylthio)-9H-purin-6-amine]	–	–	50 (≈ 18.1 µg/mL)	–	killed all bacteria	bactericidal activity	–	–	–
